Reference: DBAASP
Converted amounts (≈) assume the structure as drawn.

Key:
Assay in all cases: ≥ marks a high value that may be exact or a test limit, other limits are often not marked, values filed in µg/mL are converted to µM
[1] = test system: Pseudomonas aeruginosa ATCC 27853
[2] = test system: Staphylococcus epidermidis ATCC 12228
[3] = test system: Micrococcus luteus ATCC 10240
[4] = test system: Salmonella enterica subsp. enterica serovar Typhimurium ATCC 14028
[5] = test system: Escherichia coli ATCC 25922
[6] = test system: Bacillus subtilis ATCC 6633
[7] = test system: Shigella dysenteriae ATCC 9752
[8] = test system: Klebsiella pneumoniae ATCC 10031
[9] = test system: Staphylococcus aureus ATCC 6538P
Escherichia coli = test system: Escherichia coli
Leuconostoc lactis = test system: Leuconostoc lactis
Pasteurella multocida = test system: Pasteurella multocida
Listeria innocua = test system: Listeria innocua
Micrococcus luteus = test system: Micrococcus luteus
[10] = test system: Staphylococcus epidermidis
Streptococcus uberis = test system: Streptococcus uberis
Bacillus cereus = test system: Bacillus cereus
Staphylococcus aureus = test system: Staphylococcus aureus
[11] = test system: Staphylococcus aureus ATCC BAA-1556

`CC(C)C[C@H](NC(=O)[C@H](Cc1c[nH]c2ccccc12)NC(=O)[C@H](CCCCN)NC(=O)[C@H](Cc1ccccc1)NC(=O)[C@H](C)NC(=O)[C@H](Cc1c[nH]c2ccccc12)NC(=O)[C@H](CCCCN)NC(=O)[C@H](C)NC(=O)[C@@H](N)Cc1ccccc1)C(=O)N[C@@H](CCCCN)C(=O)N[C@@H](CCCCN)C(N)=O` [FAKWAFKWLKK] gave an MIC [1] of 8.6 µM (≈ 12.5 µg/mL), an MIC [2] of 4.34 µM (≈ 6.3 µg/mL) and an MIC [3] of 4.34 µM (≈ 6.3 µg/mL). It also gave an MIC [4] of 17.2 µM (≈ 25 µg/mL), an MIC [5] of 8.6 µM (≈ 12.5 µg/mL) and an MIC [6] of 4.34 µM (≈ 6.3 µg/mL). For the same compound, the MIC [7] was 8.6 µM (≈ 12.5 µg/mL), the MIC [8] was 4.34 µM (≈ 6.3 µg/mL) and the MIC [9] was 4.34 µM (≈ 6.3 µg/mL).
For `CC[C@H](C)[C@H](NC(=O)[C@@H](NC(=O)[C@@H]1CCCN1C(=O)[C@@H](NC(=O)[C@@H](NC(=O)[C@H](Cc1cnc[nH]1)NC(=O)[C@@H]1CCCN1C(=O)[C@@H](NC(=O)[C@@H](NC(=O)[C@H](Cc1cnc[nH]1)NC(=O)[C@H](CCCCN)NC(=O)[C@@H](NC(=O)[C@@H](NC(=O)[C@H](CO)NC(=O)CNC(=O)[C@H](CC(C)C)NC(=O)[C@@H](NC(=O)[C@H](CO)NC(=O)[C@H](CC(C)C)NC(=O)[C@H](CC(C)C)NC(=O)CN)C(C)C)C(C)C)C(C)C)C(C)C)[C@@H](C)CC)C(C)C)C(C)C)C(C)C)C(=O)N[C@@H](C)C(=O)N[C@@H](CCC(=O)O)C(=O)N[C@@H](Cc1cnc[nH]1)C(=O)N[C@@H](CC(C)C)C(N)=O` [GLLSVLGSVVKHVIPHVVPVIAEHL], the MIC (Escherichia coli) was > 38.3 µM, the MIC (Leuconostoc lactis) was 1.15 µM (≈ 3 µg/mL) and the MIC (Pasteurella multocida) was 9.57 µM (≈ 25 µg/mL). It also gave an MIC (Listeria innocua) of 19.1 µM (≈ 50 µg/mL), an MIC (Micrococcus luteus) of 4.59 µM (≈ 12 µg/mL) and an MIC [10] of 9.57 µM (≈ 25 µg/mL). It also gave an MIC (Streptococcus uberis) of 19.1 µM (≈ 50 µg/mL), an MIC (Bacillus cereus) of 19.1 µM (≈ 50 µg/mL) and an MIC (Staphylococcus aureus) of 9.57 µM (≈ 25 µg/mL).
In the case of `CC[C@H](C)[C@H](NC(=O)[C@@H](NC(=O)[C@H](C)NC(=O)[C@H](Cc1ccccc1)NC(=O)[C@H](CC(C)C)NC(=O)CN)C(C)C)C(=O)N[C@@H](CCCCN)C(=O)N[C@@H](CCCCN)C(=O)N[C@H](C(=O)N[C@@H](C)C(=O)N[C@@H](CO)C(=O)N[C@H](C(=O)N[C@H](C(=O)N[C@@H](CCCCN)C(=O)N[C@@H](CCCCN)C(=O)N[C@@H](CC(C)C)C(N)=O)[C@@H](C)CC)C(C)C)C(C)C` [GLFAVIKKVASVIKKL], the MIC (Escherichia coli) is reported as 58.3 µM (≈ 99.9 µg/mL), the MIC (Leuconostoc lactis) is reported as 1.75 µM (≈ 3 µg/mL) and the MIC (Pasteurella multocida) is reported as ≥ 58.3 µM. The MIC (Listeria innocua) was 3.5 µM (≈ 6 µg/mL), the MIC (Micrococcus luteus) was 14.6 µM (≈ 25 µg/mL) and the MIC [10] was 7 µM (≈ 12 µg/mL). It also gave an MIC (Streptococcus uberis) of 14.6 µM (≈ 25 µg/mL), an MIC (Bacillus cereus) of 14.6 µM (≈ 25 µg/mL) and an MIC (Staphylococcus aureus) of 14.6 µM (≈ 25 µg/mL).
`CC[C@H](C)[C@H](NC(=O)[C@H](Cc1c[nH]c2ccccc12)NC(=O)[C@H](CCCN=C(N)N)NC(=O)[C@H](CCCN=C(N)N)NC(=O)[C@H](Cc1c[nH]c2ccccc12)NC(=O)[C@@H](N)CCCCN)C(=O)N[C@@H](CCCN=C(N)N)C(N)=O` [KWRRWIR] was tested, and the MIC [11] was ≥ 100 µM.
